Measured values: patent publication EP0974351A2, “Medicament for preventing and treating gastrointestinal damage” (JOUVEINAL, priority 1998, dated 2000)

Experiments:
[1] = test system: TNBS-Induced Chronic Colonic Allodynia; assay: TNBS-induced chronic colonic allodynia in rats (colonic distension threshold); assay type: in vivo, Male Sprague-Dawley rats; conditions: for Colonic Threshold: TNBS-treated rats, control 43.39, TNBS alone printed 1781; for dose relation of the inhibition of TNBS-induced colonic allodynia: gabapentin 100, 300, 500 mg/kg sc, CI-1008 30, 60, 100, 200 mg/kg sc; for colonic inflammatory effect of TNBS (colon weight, area of hyperemia and necrosis, colonic myeloperoxidase content): sc 30 minutes before measurement, Day 7 after TNBS
Protocol: GABA analogs were evaluated in rats suffering from chronic visceral allodynia induced by trinitrobenzene sulfonic acid (TNBS).
In humans, digestive disorders are often associated with visceral pain. In these pathologies, the visceral pain threshold is decreased, indicating a visceral hypersensitivity. Consequently, the following study was designed to evaluate the effect of injection of TNBS into the colon on visceral pain threshold in an experimental model of colonic distension.
(§1) Male Sprague-Dawley rats weighing 340 to 400 g were used in the study. The animals were housed three per cage in a regulated environment (20 ± 1°C, 50 ± 5% humidity, with light 8:00 AM to 8:00 PM). Under anethesia (ketamine 80 mg/kg i.p.; acepromazin 12 mg/kg i.p.), TNBS (50 mg/kg), or saline (1.5 mL/kg) was injected into the proximal colon (1 cm from the cecum). After the surgery, animals were individually housed in the regulated environment.
(§2) A balloon catheter (5-6 cm length) was inserted through the anus into the colon and kept in position (tip of balloon 5 cm from the anus) by taping the catheter to the base of the tail. The balloon was progressively inflated by step of 5 mm Hg, from 0 to 75 mm Hg, each step of inflation lasting 30 seconds. Each cycle of colonic distension was controlled by a standard barostat. The threshold corresponds to the pressure which produced the first abdominal contraction, at which time the cycle of distension was discontinued. To determine the colonic threshold, four cycles of distension were performed on the same animal.
In a second series, a group of eight rats treated with TNBS were subjected to a colonic distension session.
In a third series, a group of eight rats treated with TNBS received a subcutaneous (sc) injection of gabapentin or CI-1008 30 minutes prior to initiation of the colonic distension cycle.
(§3) All test compounds were dissolved in saline except TNBS. TNBS was dissolved in EtOH 30% (w/v). Subcutaneous injection of vehicle was given in a volume of […].
(§4) Statistical significance between each group was determined using a one-way ANOVA followed by Student's unpaired t-test. Differences were considered statistically significant at p <0.05.
Pain threshold (pressure of distension inducing the first abdominal contraction) after distal colonic distension was determined at Day 7 in two groups of awake rats: control animals and TNBS-treated animals. […] Inflammatory parameters (colon weight, area of hyperemia and necrosis and colonic myeloperoxidase content) were measured in the proximal colon at Day 7 after TNBS treatment.
Gabapentin (100, 300, and 500 mg/kg sc) and CI-1008 (30, 60, 100, and 200 mg/kg sc) were administered 30 minutes before colonic distension and measurement of the inflammatory parameters.

[2] = test system: Colonic Threshold in Normal Rats; assay: Colonic distension pain threshold in normal rats; assay type: in vivo, Male Sprague-Dawley rats; conditions: normal rats, control 43.33, NS vs control
Protocol: as §1, §2
In a first series of experiments, a group of eight rats treated with saline were subjected to a colonic distension session.
as §3, §4

[3] = test system: Inflammatory Colonic Pain Induced by Intramural Injection of Formalin 5%; assay: Inflammatory colonic pain induced by intramural injection of formalin 5% in rats; assay type: in vivo, Adult female Sprague-Dawley rats; conditions: for % Antinociception: intracolonic formalin 5%, 50 µL/rat; for pain score induced by intracolonic formalin (in words): gabapentin 100, 300, 500 mg/kg sc, CI-1008 100, 200 mg/kg sc
Protocol: The GABA analogs were evaluated in another model to determine their effect on inflammatory visceral pain.
Administration of formalin into the wall of the rat colon causes acute inflammation and visceral pain. The aim of this study was to evaluate the antinociceptive activity of gabapentin and CI-1008 in visceral pain induced by colonic intrapariental injection of formalin.
Adult female Sprague-Dawley rats weighing 240 to 260 g were used in the study. The animals were housed three per cage in a regulated environment (20 ± 1°C 50 ± 5% humidity, with light 8:00 AM to 8:00 PM) prior to use in the test.
Each test animal was placed in a transparent plastic cage (27 x 43 x 25 cm) with a layer of wood shavings on the floor. Drinking water was available. Cages were placed in such a way that visual interaction between animals was avoided. A mirror was positioned behind each cage to improve the recording of behaviors. Each animal was initially allowed 20 minutes to get used to its surroundings. Anesthesia was then achieved by using isofurane (starting 4%, then 1.5% in a mixture of […] nitrous oxide and 1:3 oxygen). The animal was suspended by its tail, the rectum was gently emptied with a cotton-capped stalk, and a coloscope was inserted through the anus. This designed endoscope has a lateral slot that allows for puncture of the intestinal wall under visual control, using a 51-mm-long needle (26 ga), at about 35 mm from the anal margin. Injected solutions were either 50 µL 5% formalin, or the same volume of isotonic saline. Animals were allowed to recover from anesthesia as soon as the injection was completed (about 1 minute), and the observation period was started and continued for 2 hours. Thirty minutes after the end of the observation test, an IV injection of Evans Blue (1%) was administered, and 30 minutes later the animal was sacrificed. The abdomen was opened. The injection site and the zone of diffusion of Evans Blue were recorded by image analysis software. Data from rats in which the spread of the dye was not restricted to the sigmoid wall were discarded.
As listed in increasing order of pain intensity, these behaviors were: (i) abdominal licking and nibbling (L), (ii) body stretching, i.e., backward extension of the hind limbs (B), (iii) contraction of the flanks, sometimes evolving to a stretching attitude (C), and (iv) whole body contraction, the rat standing with its back curved, occasionally further graded according to the duration of the given episode: W1 for less than 30 seconds, W2 between 30 seconds and 1 minute, and W3 for more than 1 minute. Behaviors were recorded for each animal throughout the 2-hour test on individual charts. A pain score (S) was then calculated for each of the successive 15-minute periods, using the following formula: S = 1L + 2B + 3C + 4W1 + 5W2 + 6W3 [formula] whereby the pain score was proportional to (i) the number of episodes of each selected behavior, and (ii) the coefficient, from 1 to 6, attributed to the given behaviors.
All compounds were dissolved in saline. Subcutaneous injection of vehicle was given in a volume of […]. Formalin was purchased from Prolabo.
Statistical significance between each group was determined by using a one-way ANOVA followed by Student's unpaired t-test. Differences were considered statistically significant at p <0.05.
Hyperalgesia is induced by intramural injection of formalin (5%, 50 µL/rat) into the colonic wall in unfasted female Sprague-Dawley rats. Gabapentin and CI-1008 were tested at 100, 300, 500 and 100, 200 mg/kg sc, respectively. […] The maximal inhibitory effect was observed after 500 mg/kg of gabapentin and 200 mg/kg of CI-1008.

Row | SMILES | Colonic Threshold ([1]; 30 mg/kg sc 30 min before colonic distension, Day 7) | Colonic Threshold ([1]; 60 mg/kg sc) | allodynia induced by TNBS (in words) ([1]; 100 mg/kg sc) | Colonic Threshold ([1]; 100 mg/kg sc) | Colonic Threshold ([1]; 200 mg/kg sc) | dose relation of the inhibition of TNBS-induced colonic allodynia [1] | colonic inflammatory effect of TNBS (colon weight, area of hyperemia and necrosis, colonic myeloperoxidase content) [1] | Colonic Threshold ([2]; 200 mg/kg sc) | % Antinociception ([3]; 100 mg/kg sc) | % Antinociception ([3]; 200 mg/kg sc) | pain score induced by intracolonic formalin (in words) [3] | Colonic Threshold ([1]; 300 mg/kg sc) | effect of TNBS on colonic pain (in words) ([1]; 500 mg/kg sc) | Colonic Threshold ([1]; 500 mg/kg sc) | Colonic Threshold ([2]; 500 mg/kg sc) | % Antinociception ([3]; 0.3 mg/kg sc (so in the source)) | % Antinociception ([3]; 300 mg/kg sc) | % Antinociception ([3]; 500 mg/kg sc)
1 | CC(C)C[C@H](CN)CC(=O)O [CI-1008, (S)-3-(aminomethyl)-5-methylhexanoic acid] | 2172 mm Hg | 2547 mm Hg | completely suppressed | 33.13 mm Hg | 40.47 mm Hg | dose-related inhibition | neither gabapentin nor CI-1008 inhibited | 46.41 mm Hg | 18.55% | 70.81% | significantly and dose-dependently decreased |  |  |  |  |  |  | 
2 | NCC1(CC(=O)O)CCCCC1 [Gabapentin, 1-(aminomethyl)-cyclohexane acetic acid] |  |  |  | 22.03 mm Hg |  | inhibited in a dose-related manner | neither gabapentin nor CI-1008 inhibited |  | 13.62% |  | significantly and dose-dependently decreased | 24.69 mm Hg | completely blocked | 36.88 mm Hg | 43.75 mm Hg | -7.73% | 55.07% | 88.01%
